Reference: patent EP0569598A1, “BENZOXAZINONE DERIVATIVE” (JAPAN TOBACCO INC., priority 1991, dated 1993)

Legend:
[1] = biological target: T1, bovine pancreatic trypsin (TRY) (Bos taurus, UniProt P00760); test: TRY inhibitory activity (synthetic substrate, pNA release); type: biochemical; details: pH 7.5; TRY 25 nM, substrate Z-Arg-pNA 1.0 mM; read-out: IC₅₀ value TRY
T1 construct: bovine pancreatic trypsin (TRY); purchased Sigma Inc
T1 sequence (P00760 24-246): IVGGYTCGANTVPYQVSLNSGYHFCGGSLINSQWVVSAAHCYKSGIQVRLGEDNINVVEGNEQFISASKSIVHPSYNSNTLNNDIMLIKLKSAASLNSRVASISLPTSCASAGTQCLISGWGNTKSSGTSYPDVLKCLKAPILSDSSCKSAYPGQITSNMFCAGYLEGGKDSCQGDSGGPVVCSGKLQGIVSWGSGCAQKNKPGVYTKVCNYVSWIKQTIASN
Description: (§1) Activities of the Benzoxazine derivatives of the present invention against human leukocyte elastase (HLE), human sputum elastase (HSE), human cathepsin G (HCG), bovine pancreatic α-chmotrypsin (CYT) and bovine pancreatic trypsin (TRY) were measured by the following method.
(§2) A test compound was dissolved in DMSO (for fluorometry) and prepared various concentration of the solution. To each concentration was added 2-fold volume of 0.2M Tris-HCl (pH8.6), thereby obtaining a test solution. Synthetic substrate (Funakoshi, L-1335) was dissolved in DMSO and 2-volume of 0.2M Tris-HCl (pH8.6) was added thereto, thereby obtaining a substrate solution. The reaction was performed using a microplate having 96 wells (Nunk). Six-time reactions were repeated for each concentration. One handred and forty µl of an enzyme solution containing 0.2M Tris-HCl (pH8.6), 30 µl of a test solution and 30 µl of a substrate solution per well of the microplate were respectively pre-incubated at 37°C for 10 minutes. After completion of the incubation, the enzyme solution was mixed with the test sample and incubated for 10 minutes and then the substrate solution was added to perform an enzyme reaction. The absorbance of released P-nitroanilide (PNA) was measured at the wave length of 405 nm by means of a microplate reader (MTP-100; CORONA), thereby determining the substrate decomposition. […]

[2] = test system: neutrophiles from the human peripheral blood; test: Human neutrophile chemotaxis suppressing activity (fMLP, chemotaxis chamber); type: cell-based; details: Concentration 12.5 µM, 10-⁷M fMLP, one hour at 37°C
Description: The neutrophile fraction (60% percoal fraction having neutrophile purity of 90% or more) was taken from the human peripheral blood by means of percoal density gradient centrifugation at 2300 rpm for 20 minutes.
An intercell having a pore diameter of 5 µm, containing 8 x 10⁵ of neutrophiles and the compound of the present invention adjusted in various concentrations was placed in each well of a chemotaxis chamber (KURABO), in which has been added 1300 µl of a medium containing 10-⁷M of formylmethionyl-leucyl-phenylalanine (fMLP), which is a neutrophile chemotaxis factor. After incubating for one hour at 37°C in an incubator containing 5% carbon dioxide, the number of cells migrating from the upper side of the intercell membrane into the lower side of the membrane in the chamber was counted by the following method. That is, the lower side surface of the intercell membrane was washed with PBS for 4 times and fixed with methanol and dyed with hematoxylin-eosin solution. The membrane was removed from the intercell and placed on a slide, dried in air, followed by sealing with Canada balsam. The cell number was microscopically counted in 5 visual fields. Taking average number of the five fields, the average was employed as the number of migrating cells. The value subtracting the migrating cell number in a control experiment containing no fMLP from the cell number in an experiment containing no the compound of the present invention was regarded as 100, the chemotaxis suppressing activity was determined as the following formula: Neutrophilic chemotaxis suppressing activity (%) [formula] = 100 - A/B x 100 [formula] = 100 - (C - D)/(E-D) x 100 [formula] Where: • A: chemotaxis measured in the experiment containing the compound of the present invention; • B: chemotaxis measured in the experiment not containing the compound of the present invention • C: the number of migrating cells measured in the experiment containing both the compound of the present invention and fMLP. • D: the number of migrating cells in the experiment containing neither the compound of the present invention nor fMLP. • E: the number of migrating cells in the experiment containing only fMLP.

[3] = biological target: T2, human sputum elastase (HSE) (Homo sapiens, UniProt P08246); test: HSE inhibitory activity (synthetic substrate, pNA release); type: biochemical; details: pH 7.0; HSE 10 nM, substrate 0.25 mM; read-out: IC₅₀ value HSE
T2 construct: human sputum elastase (HSE); purchased Sigma Inc
T2 sequence (P08246 30-267): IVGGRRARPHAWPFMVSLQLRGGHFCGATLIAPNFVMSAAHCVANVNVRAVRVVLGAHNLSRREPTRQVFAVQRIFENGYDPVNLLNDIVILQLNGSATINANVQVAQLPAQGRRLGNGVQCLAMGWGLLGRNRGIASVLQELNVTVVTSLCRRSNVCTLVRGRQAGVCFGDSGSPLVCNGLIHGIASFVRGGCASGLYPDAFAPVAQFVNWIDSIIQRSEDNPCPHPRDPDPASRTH
Description: as §1, §2

human cathepsin G (HCG) = biological target: T3, human cathepsin G (HCG) (Homo sapiens, UniProt P08311); test: HCG inhibitory activity (synthetic substrate, pNA release); type: biochemical; details: pH 7.5; HCG 50 nM, substrate 0.5 mM; read-out: IC₅₀ value HCG
T3 construct: purchased Cosmo Bio Inc
T3 sequence (P08311 21-244): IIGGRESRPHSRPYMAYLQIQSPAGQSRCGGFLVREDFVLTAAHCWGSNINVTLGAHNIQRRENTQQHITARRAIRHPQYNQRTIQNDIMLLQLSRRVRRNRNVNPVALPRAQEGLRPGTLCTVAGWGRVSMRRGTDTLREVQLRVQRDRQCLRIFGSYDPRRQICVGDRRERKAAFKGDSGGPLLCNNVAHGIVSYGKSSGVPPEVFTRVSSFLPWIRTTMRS
Description: as §1
A test compound was dissolved in DMSO (for fluorometry) and prepared various concentration of the solution. To each concentration was added 2-fold volume of 0.2M Tris-HCl (pH8.6), thereby obtaining a test solution. Synthetic substrate (Funakoshi, L-1335) was dissolved in DMSO and 2-volume of 0.2M Tris-HCl (pH8.6) was added thereto, thereby obtaining a substrate solution. The reaction was performed using a microplate having 96 wells (Nunk). Six-time reactions were repeated for each concentration. One handred and forty µl of an enzyme solution containing 0.2M Tris-HCl (pH8.6), 30 µl of a test solution and 30 µl of a substrate solution per well of the microplate were respectively pre-incubated at 37°C for 10 minutes. After completion of the incubation, the enzyme solution was mixed with the test sample and incubated for 10 minutes and then the substrate solution was added to perform an enzyme reaction. The absorbance of released P-nitroanilide (PNA) was measured at the wave length of 405 nm by means of a microplate reader (MTP-100; CORONA), thereby determining the substrate decomposition. The rate of the substrate decomposition was shown as an average value of 6 repeated reactions. The inhibitory concentration of a test compound relative to the amount of the substrate decomposition in the reaction mixture without a test compound was regarded as an IC₅₀ value. The final concentration of HLE and a synthesized substrate in the reaction mixture were 5.63 nM and 0.2625 mM, respectively.
a) Enzyme obtaining route HCG was obtained from Cosmo Bio Inc.
The same method as in the measurement of HLE inhibitory activity was used except that a buffer solution (pH 7.5) was used. The final concentration of HCG and synthetic substrate (Funakoshi, L-1010) in a reaction mixture were 50 nM and 0.5 mM, respectively.

- IC50 [1]: > 12.5 µM
- IC50 [3]: 0.28 µM
- IC50 (human cathepsin G (HCG)): > 12.5 µM
Structure (SMILES): Cc1cccc2nc([C@@H](NC(=O)OCC(c3ccccc3)c3ccccc3)C(C)C)oc(=O)c12 [Compound 1, 2-[1(S)-[(2,2-diphenylethoxy-carbonyl)amino]-2-methylpropyl]-5-methyl-4H-3,1-benzoxazin-4-one]
- Chemotaxis ([2]; experiment without compound regarded as 100): 4.7
- activity at 12.5 µM ([2]; Homo sapiens, 1 h): 95.3%
